From US5518735A, “Meta-substituted phenylalanine derivatives” (priority 1990, dated 1996)
Structures can show the parent of a compound that is named as a salt.

What was measured:
thrombin = thrombin (Bos taurus, UniProt P00735); assay: Inhibition of thrombin (dissociation constant Ki); type: biochemical
factor Xa = factor Xa (Bos taurus, UniProt P00743); assay: Inhibition of factor Xa (dissociation constant Ki); type: biochemical; details: Tables 19-25; read-out: Ki, Factor Xa
trypsin = target: T1, trypsin (Bos taurus, UniProt P00760); assay: Inhibition of trypsin (Ki); type: biochemical; details: Table 26
T1 sequence (P00760 24-246): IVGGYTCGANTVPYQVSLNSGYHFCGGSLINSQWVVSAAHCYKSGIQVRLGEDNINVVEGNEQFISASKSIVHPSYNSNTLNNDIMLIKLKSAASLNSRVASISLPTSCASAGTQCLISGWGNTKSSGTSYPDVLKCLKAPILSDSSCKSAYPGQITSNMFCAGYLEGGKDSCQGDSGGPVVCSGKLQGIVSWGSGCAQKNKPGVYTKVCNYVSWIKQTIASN

plasmin = target: T2, plasmin (Homo sapiens, UniProt P00747); assay: Inhibition of plasmin (Ki); type: biochemical; details: Table 26
T2 construct: trypsin and the related enzymes thrombin, plasmin, factor Xa, tPA
T2 sequence (P00747 581-810 limits assumed): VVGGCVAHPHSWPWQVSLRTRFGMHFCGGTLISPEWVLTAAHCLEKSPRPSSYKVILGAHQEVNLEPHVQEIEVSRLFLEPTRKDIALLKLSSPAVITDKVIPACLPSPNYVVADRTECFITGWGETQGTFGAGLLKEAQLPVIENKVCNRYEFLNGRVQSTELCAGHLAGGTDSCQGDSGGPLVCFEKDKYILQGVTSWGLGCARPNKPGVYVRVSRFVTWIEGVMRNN
T2 sequence (P00747 97-580 partner limits assumed): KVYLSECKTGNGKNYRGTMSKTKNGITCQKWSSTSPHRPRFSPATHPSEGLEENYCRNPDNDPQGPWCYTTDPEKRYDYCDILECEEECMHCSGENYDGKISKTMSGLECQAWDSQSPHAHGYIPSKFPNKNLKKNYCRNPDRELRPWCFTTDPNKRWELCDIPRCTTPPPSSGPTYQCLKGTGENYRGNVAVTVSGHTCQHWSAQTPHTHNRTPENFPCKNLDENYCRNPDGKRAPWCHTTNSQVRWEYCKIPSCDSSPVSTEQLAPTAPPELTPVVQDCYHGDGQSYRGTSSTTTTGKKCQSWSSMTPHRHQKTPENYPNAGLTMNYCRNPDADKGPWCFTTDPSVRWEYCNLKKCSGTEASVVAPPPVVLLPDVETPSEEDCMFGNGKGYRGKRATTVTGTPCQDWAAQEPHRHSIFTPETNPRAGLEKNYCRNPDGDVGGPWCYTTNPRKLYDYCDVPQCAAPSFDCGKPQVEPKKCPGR

factor XIIa = target: T3, factor XIIa (Homo sapiens, UniProt P00748); assay: Inhibition of factor XIIa (Ki); type: biochemical; details: Table 26
T3 construct: glandular kallikrein, factor XIIa and plasma kallikrein
T3 sequence (P00748 373-615 limits assumed): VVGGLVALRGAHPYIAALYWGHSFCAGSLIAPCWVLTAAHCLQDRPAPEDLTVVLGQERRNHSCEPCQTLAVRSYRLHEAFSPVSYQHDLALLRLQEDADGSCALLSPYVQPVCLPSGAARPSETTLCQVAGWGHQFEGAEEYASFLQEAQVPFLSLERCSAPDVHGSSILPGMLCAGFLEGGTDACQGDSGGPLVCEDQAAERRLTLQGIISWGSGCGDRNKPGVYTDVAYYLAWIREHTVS

tPA = tPA (Homo sapiens, UniProt P00750); assay: Inhibition of tPA (Ki); type: biochemical; details: Table 26
Chain of tPA (P00750 36-562): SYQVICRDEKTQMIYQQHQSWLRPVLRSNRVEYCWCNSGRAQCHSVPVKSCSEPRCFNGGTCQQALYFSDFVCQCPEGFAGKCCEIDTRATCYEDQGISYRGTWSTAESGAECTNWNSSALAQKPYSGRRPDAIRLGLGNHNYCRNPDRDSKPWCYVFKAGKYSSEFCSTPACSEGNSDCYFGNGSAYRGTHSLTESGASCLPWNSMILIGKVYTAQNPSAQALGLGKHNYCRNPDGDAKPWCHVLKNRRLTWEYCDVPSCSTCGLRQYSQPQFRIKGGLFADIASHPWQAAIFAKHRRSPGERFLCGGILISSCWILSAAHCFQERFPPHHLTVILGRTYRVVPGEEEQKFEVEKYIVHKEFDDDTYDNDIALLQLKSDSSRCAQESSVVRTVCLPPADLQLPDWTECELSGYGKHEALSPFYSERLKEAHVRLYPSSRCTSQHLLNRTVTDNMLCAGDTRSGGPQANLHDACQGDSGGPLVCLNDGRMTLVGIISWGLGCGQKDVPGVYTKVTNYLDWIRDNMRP

glandular kallikrein = glandular kallikrein (Sus scrofa, UniProt P00752); assay: Inhibition of glandular kallikrein (Ki); type: biochemical; details: Table 26; read-out: Ki, Gland. Kallikrein
Chain of glandular kallikrein (P00752 8-246): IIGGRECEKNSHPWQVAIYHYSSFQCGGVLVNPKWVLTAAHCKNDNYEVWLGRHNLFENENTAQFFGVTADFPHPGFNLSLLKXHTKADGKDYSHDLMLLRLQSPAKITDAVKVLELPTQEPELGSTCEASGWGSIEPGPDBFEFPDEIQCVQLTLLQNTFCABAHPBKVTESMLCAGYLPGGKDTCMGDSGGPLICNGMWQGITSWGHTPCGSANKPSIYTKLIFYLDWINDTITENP

plasma kallikrein = target: T4, plasma kallikrein (Homo sapiens, UniProt P03952); assay: Inhibition of plasma kallikrein (Ki); type: biochemical; details: Table 26
T4 construct: glandular kallikrein, factor XIIa and plasma kallikrein
T4 sequence (P03952 391-638 limits assumed, species assumed): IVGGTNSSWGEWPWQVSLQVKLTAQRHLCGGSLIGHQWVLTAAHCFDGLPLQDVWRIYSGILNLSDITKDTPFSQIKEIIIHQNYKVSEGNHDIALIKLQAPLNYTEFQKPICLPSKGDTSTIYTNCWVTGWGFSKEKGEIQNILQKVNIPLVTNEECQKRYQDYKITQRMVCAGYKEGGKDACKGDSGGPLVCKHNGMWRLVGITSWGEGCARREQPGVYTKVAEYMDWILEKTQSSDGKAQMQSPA
T4 sequence (P03952 20-390 partner limits assumed, species assumed): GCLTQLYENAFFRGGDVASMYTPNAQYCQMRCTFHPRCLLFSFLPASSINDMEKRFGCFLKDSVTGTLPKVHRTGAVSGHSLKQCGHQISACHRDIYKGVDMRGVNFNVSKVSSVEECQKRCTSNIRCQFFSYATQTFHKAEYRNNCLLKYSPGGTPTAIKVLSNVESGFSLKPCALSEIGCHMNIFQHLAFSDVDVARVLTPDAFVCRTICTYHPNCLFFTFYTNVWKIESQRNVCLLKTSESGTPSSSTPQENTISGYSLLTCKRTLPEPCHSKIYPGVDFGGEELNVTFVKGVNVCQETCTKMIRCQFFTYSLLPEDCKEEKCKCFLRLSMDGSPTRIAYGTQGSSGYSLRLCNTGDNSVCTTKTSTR

in vivo = details: mouse
[1] = Plasma concentration in rats after oral administration (HPLC); details: rat, plasma, po, 100 mg/kg
Description: (§1) For the pharmacokinetic characterization, the plasma concentration of selected derivatives was determined in rats after intravenous (i.v.), subcutaneous (s.c.) and peroral (p.o.) application according to the following three-step procedure:
(§2) 1. A physiological NaCl solution of the substance to be tested was submitted to high pressure liquid chromatography (HPLC) in order to determine its characteristic substance-specific retention time with the chosen test conditions.
(§3) 2. The substance to be tested was diluted in vitro in rat plasma. This solution was also submitted to HPLC to see whether the characteristic peak of the substance once again appeared at the substance-specific retention time.
(§4) 3. […] Blood samples were taken at time intervals of 15 minutes, from which plasma samples were prepared by centrifugation; those samples were also submitted to HPLC to see whether the characteristic peak of the substance appeared again at the substance-specific retention time.

[2] = Plasma concentration in rats after intravenous administration (HPLC)
Description: as §1, §2, §3, §4

[3] = Plasma concentration in rats after subcutaneous administration (HPLC); details: rat, plasma, sc, 5 mg/kg
[4] = cited from earlier work

Chain of factor Xa (P00743 234-492 limits assumed): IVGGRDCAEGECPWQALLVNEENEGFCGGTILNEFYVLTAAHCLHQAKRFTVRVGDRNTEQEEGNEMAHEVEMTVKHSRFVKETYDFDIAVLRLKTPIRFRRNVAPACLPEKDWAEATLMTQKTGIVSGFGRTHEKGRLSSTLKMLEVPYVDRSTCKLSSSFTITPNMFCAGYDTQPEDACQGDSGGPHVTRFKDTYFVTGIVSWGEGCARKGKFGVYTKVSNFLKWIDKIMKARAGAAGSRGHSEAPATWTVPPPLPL
Chain of factor Xa (P00743 41-180 partner limits assumed): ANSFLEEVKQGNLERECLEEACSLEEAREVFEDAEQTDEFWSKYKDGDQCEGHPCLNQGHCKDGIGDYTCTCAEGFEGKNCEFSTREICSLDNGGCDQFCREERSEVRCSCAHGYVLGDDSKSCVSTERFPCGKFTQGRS

With N=C(NO)c1cccc(CC(NS(=O)(=O)c2ccc3ccccc3c2)C(=O)N2Cc3ccccc3CC2C(=O)O)c1 (racemic) [Compound 190, N-α-(2-Naphthylsulfonyl)-3-oxamidino-(D,L)-phenylalanyl-1,2,3,4-tetrahydroisoquinoline-3-carboxylic acid hydroiodide] the Ki (thrombin) was 2.4 µM, the Ki (factor Xa) was 130 µM and the Ki (trypsin) was 27 µM. It also gave a Ki (plasmin) of 120 µM, a Ki (factor XIIa) of 460 µM and a Ki (tPA) greater than 1000 µM. The Ki (glandular kallikrein) was greater than 1000 µM, the Ki (plasma kallikrein) was greater than 1000 µM and the LD50 at 168 h (in vivo; iv) was greater than 150 mg/kg. It also gave an LD50 at 168 h (in vivo; po) greater than 3000 mg/kg, a concentration at 0.25 h [1] of 481 ng/mL and a concentration at 0.5 h [1] of 1110 ng/mL. For the same compound, the concentration at 0.75 h [1] was 796 ng/mL, the concentration at 1 h [1] was 574 ng/mL and the concentration at 2 h [1] was 542 ng/mL. It also gave a concentration at 3 h [1] of 217 ng/mL, a concentration at 4 h [1] of 113 ng/mL and a concentration at 5 h [1] of 50 ng/mL. The pharmacokinetic properties ([2]; in words, compared with NAPAP) was “improved pharmacokinetic properties”, the Concentration in plasma ([2]; rat, i.v. 1 mg/kg, 60 min) was 0 ng/mL and the concentration at 2 min ([2]; rat, plasma, iv, 1 mg/kg) was 3260 ng/mL. For the same compound, the concentration at 5 min ([2]; rat, plasma, iv, 1 mg/kg) was 1610 ng/mL, the concentration at 10 min ([2]; rat, plasma, iv, 1 mg/kg) was 806 ng/mL and the concentration at 0.25 h ([2]; rat, plasma, iv, 1 mg/kg) was 496 ng/mL. The concentration at 0.5 h ([2]; rat, plasma, iv, 1 mg/kg) was 477 ng/mL, the concentration at 0.75 h ([2]; rat, plasma, iv, 1 mg/kg) was 134 ng/mL and the concentration at 0.25 h [3] was 340 ng/mL. It also gave a concentration at 0.5 h [3] of 330 ng/mL, a concentration at 0.75 h [3] of 374 ng/mL and a concentration at 1 h [3] of 492 ng/mL. The concentration at 1.5 h [3] was 354 ng/mL, the concentration at 2 h [3] was 270 ng/mL and the concentration at 3 h [3] was 165 ng/mL. The concentration at 4 h [3] was 152 ng/mL, the concentration at 5 h [3] was 138 ng/mL and the concentration at 6 h [3] was 126 ng/mL.

With CC1CCN(C(=O)C(Cc2cccc(N)c2)NS(=O)(=O)c2ccc3ccccc3c2)CC1 (racemic) [Compound 203] the Ki (thrombin) was 8.9 µM, the Ki (factor Xa) was 210 µM and the Ki (trypsin) was greater than 1000 µM. The Ki (plasmin) was greater than 1000 µM, the Ki (factor XIIa) was 270 µM and the Ki (tPA) was greater than 1000 µM. It also gave a Ki (glandular kallikrein) greater than 1000 µM and a Ki (plasma kallikrein) greater than 1000 µM.

In the case of N=C(N)Nc1cccc(CC(NS(=O)(=O)c2ccc3ccccc3c2)C(=O)N2CCCCC2)c1 (racemic) [Compound 207, N-α-(2-Naphthylsulfonyl)-3-quanidino-(D,L)-phenylalanine-piperidide hydrochloride], the Ki (thrombin) is reported as 0.4 µM, the Ki (factor Xa) is reported as 107 µM and the Ki (trypsin) is reported as 4.1 µM. It also gave a Ki (plasmin) of 17 µM, a Ki (factor XIIa) greater than 1000 µM and a Ki (tPA) greater than 1000 µM. It also gave a Ki (glandular kallikrein) greater than 1000 µM and a Ki (plasma kallikrein) greater than 1000 µM.

Compound COC(=O)[C@H]1CCCN1C(=O)[C@H](Cc1cccc(C(=N)N)c1)NS(=O)(=O)c1ccc2ccccc2c1 [Compound 124, N-α-(2-Naphthylsulfonyl)-3-amidino-(L)-phenylalanyl-(D)-proline-methyl ester hydrochloride] has a Ki (thrombin) of 0.27 µM, a Ki (factor Xa) of 104 µM and a Ki (trypsin) of 3.4 µM. For the same compound, the Ki (plasmin) was 11 µM, the Ki (factor XIIa) was 600 µM and the Ki (tPA) was 225 µM. For the same compound, the Ki (glandular kallikrein) was greater than 1000 µM, the Ki (plasma kallikrein) was 29 µM and the LD50 at 168 h (in vivo; iv) was 80 mg/kg. For the same compound, the LD50 at 168 h (in vivo; po) was greater than 3000 mg/kg.

For CN[C@H](Cc1ccccc1)C(=O)N1CCC[C@H]1C(=O)N[C@H](C=O)CCCN=C(N)N [N-methyl-D-Phe-Pro-Arg-H], the “absorption after oral administration” value [4] is listed as “absorption after oral administration has so far only been observed”.

For BOC-D-Phe-Pro-Boro-Arg-C10 H16, the “absorption after oral administration” value [4] is listed as “absorption after oral administration has so far only been observed”.
